Laboratory results reported in US8940760B2, “Pyrazolo pyridine derivatives as NADPH oxidase inhibitors” (Genkyotex SA, priority 2008, dated 2015).

How the values were obtained:
NOX activity = test: Amplex Red measurement of extracellular hydrogen peroxide (NOX activity) in DMSO-differentiated HL60 cells; format: cell-based, human; conditions: DPI at final concentration of 10 μM, 'usually'
Method: Human acute myeloid leukemia cell line HL-60 was cultured in RPMI 1640 (Invitrogen) supplemented with 10% heat-inactivated calf serum, 2 mM glutamine, 100 U/mL penicillin (Sigma), and 100 μg streptomycin (Sigma) at 37° C. under a humidified atmosphere of 5% CO2. HL60 differentiation to the neutrophil phenotype was triggered by adding Me2SO (final concentration 1.25% v/v for 6 days) to the culture medium.
Extracellular hydrogen peroxide was measured using Amplex UltraRed (Molecular Probes). Cells were trypsinized (1× Trypsin-EDTA), collected by centrifugation, and resuspended in HBSS supplemented with 1% glucose. Cells were seeded into black 96-well plates at a density of 50,000 cells in 200 μl testing buffer (HBSS 1% glucose containing 0.005 U/mL horseradish peroxidase (Roche) and 50 μM Amplex Red in the presence or absence of compounds according to the invention. As a control, DPI was included at a final concentration of 10 μM. The plates were placed in the fluorescent Optima Fluorescent plate reader and kept at 37° C. during 20 min. Fluorescence was measured for 15 min with excitation and emission wavelengths of 544 nm and 590 nm respectively. NOX activities were expressed as % of the activity in control cells. Residual activity of DPI-treated cells was usually <10%.

NOX activities [1] = test: Chemiluminescence (luminol) measurement of ROS in cells; format: cell-based; conditions: 'usually'
Method: ROS was measured using the chemiluminescent probe luminol. Cells were cultured and plated as for Amplex Red except that the Amplex Red agent was replaced by 10 μg/mL luminol (Sigma 09235). Light emission was recorded continuously at 37° C. for 60 minutes using the luminescence function of the FluoStar Optima fluorescent plate reader. The mean of the four blank values was substracted from each corrected value for each time point. NOX activities were expressed as % of the activity in control cells. Residual activity of DPI-treated cells was usually <10%.

NOX activities [2] = test: Nitroblue tetrazolium (NBT) test of intracellular and extracellular superoxide in cells; format: cell-based; conditions: DPI at final concentration of 10 μM, 'usually'
Method: Intracellular and extracellular superoxide was measured by a colorimetric technique using a quantitative nitroblue tetrazolium (NBT) test. SOD-inhibitable conversion of NBT to formazan, a fine blue precipitate, in the presence of superoxide anion was measured using Fluostar Optima spectrometer (BMG labtech). Following incubation with appropriate stimuli, cells were trypsinized (1× Trypsin-EDTA), collected by centrifugation, and washed with PBS to remove medium. 5×10^5 cells were plated on 48-well plates and incubated in Hank's balanced salt solution containing 0.5 mg/mL NBT with or without 800 U/mL SOD in the presence or absence of compounds according to the invention. As a control, DPI was included at a final concentration of 10 μM. After 2.5 h, cells were fixed and washed with methanol to remove non reduced NBT. The reduced formazan was then dissolved in 230 μl of 2M potassium hydroxide and in 280 μl of dimethylsulfoxide. The absorption was measured at 630 nm. For calculation, the absorbance at 630 nm was normalized for each individual well. The mean of the four blank values was substracted from each corrected value for each time point. NOX activities were expressed as % of the activity in control cells. Residual activity of DPI-treated cells was usually <10%.

NOX activities [3] = test: H2DCF-DA fluorescence in TGF-β stimulated HUVEC; format: cell-based, human; conditions: HUVEC stimulated with TGF-β, 'usually'
Method: HUVEC are cultured in endothelial basal medium supplemented with hydrocortisone (1 μg/mL, CalbioChem), bovine brain extract (12 μg/mL), gentamicin (50 μg/mL, CalbioChem), amphotericin B (50 ng/mL, CalBioChem EGF (10 ng/mL, and 10% FCS until the fourth passage. When the fifth passage was started, cells were cultured with a lower concentration of FCS (2%) in the absence of EGF, if not indicated otherwise. All experiments were done with cells of the fifth passage. The cells were incubated with OxLDL (oxidized low-density lipoprotein) or its buffer as control for 24 h, before detection of O2^− formation.
HUVEC were plated on coverslips and made quiescent overnight in 0.5% BSA before stimulation with TGF-β. Cells were loaded for 10 minutes with 5 μM CM-H2DCFDA in phenol-red-free medium in the dark and then treated with TGF-β (R&D Systems) in the presence or absence of compounds according to the invention. Cells were then visualized by immunofluorescence microscopy after fixation and staining of the nuclei with DAPI or examined live using confocal microscopy. DCF fluorescence was visualized at an excitation wavelength of 488 nm and emission at 515 to 540 nm. […] For calculation, the absorbance at […] was normalized to absorbance at […] for each individual well. […] NOX activities were expressed as % of the activity in control cells. […]

Measured: Residual activity of DPI-treated cells (NOX activity as % of control cells)

c1ccc([I+]c2ccccc2)cc1 [DPI, Diphenyl-iodonium]
< 10%: all assays above
